Drawing on PubChem BioAssay (NCI), this text covers TGI for 15 molecules.

Several values for one entry are separate records, joined by “and”; a condition that tells them apart may be missing. Identical values can stand only once.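 A five-concentration, 48-hour dose response in 96-well plates underlies each endpoint, interpolated linearly between surrounding concentrations. TGI marks complete inhibition of growth.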 Where only a bound is given, the exact number is not on record here.

Holding throughout (assay): DTP human tumour cell line panel, 48 h
Experiment [1] deals with TK-10 renal.
The subject of experiment [2] is NCI/ADR-RES ovarian.
Experiment [3] relates to M14 melanoma.
Experiment [4] has as its system BT-549 breast.
The test system of experiment [5] is SN12C renal.
For experiment [6], the system named is PC-3 prostate.
Experiment [7] has as its system MOLT-4 leukemia.
The subject of experiment [8] is SR leukemia.
Experiment [9] concerns HCT-116 colon.
Experiment [10] relates to DU-145 prostate.
For experiment [11], the system named is OVCAR-5 ovarian.
In experiment [12] the test system is MDA-N.
Experiment [13] relates to SK-OV-3 ovarian.
The subject of experiment [14] is SF-295 CNS.
Experiment [15] has as its system LOX IMVI melanoma.
Experiment [16] concerns HS 578T breast.
For experiment [17], the system named is HCT-15 colon.
Experiment [18] concerns OVCAR-8 ovarian.

A word on the TGI: it is the concentration giving total growth inhibition. Read a high TGI as less potent growth arrest. As to `CCOC1Oc2ccccc2-c2nc(N)ncc21` (stereo not given), the TGI in experiment [1], in experiment [2], in [3], in experiment [4], in experiment [5] and in experiment [6] was over 100 µM each time. Also, the total growth inhibition concentration (TGI) in experiment [7] was over 100 µM; in experiment [8], 61.2 µM; in experiment [9], over 100 µM; in experiment [10] it was over 100 µM; in [11], over 100 µM; in [12], over 100 µM. For the same molecule, the TGI in [13], in experiment [14], in experiment [15], in experiment [16], in [17] and in experiment [18] was over 100 µM each time.
For `O=C(O)c1ccc2[nH]c(=O)oc2c1`, the concentration for total growth inhibition (TGI) in experiment [1], in experiment [2], in experiment [3], in experiment [4], in [5] and in experiment [6] was over 100 µM each time. The TGI in experiment [7], in experiment [8], in experiment [9], in experiment [10], in experiment [11] and in [12] was over 100 µM throughout. Moreover, the total growth inhibition concentration (TGI) in experiment [13], in [14], in experiment [15], in [16], in experiment [17] and in experiment [18] was over 100 µM each time.
Consider `COc1ccccc1CC1(O)OC(=O)c2ccccc21` (stereo not given), for which the TGI in experiment [1], in experiment [2], in [3], in experiment [4], in experiment [5] and in experiment [6] was over 100 µM in each case. The total growth inhibition concentration (TGI) in experiment [7], in experiment [8], in [9], in [10], in experiment [11] and in experiment [12] was over 100 µM in each case. Further, the concentration for total growth inhibition (TGI) in [13], in experiment [14], in [15], in experiment [16], in [17] and in experiment [18] was over 100 µM in each case.
For `Clc1ccc(C2=Cc3nc2c(-c2ccccc2)c2ccc([nH]2)c(-c2ccccc2)c2nc(c(-c4ccccc4)c4ccc([nH]4)c3-c3ccccc3)C=C2)cc1`, the TGI in [1], in [2], in experiment [3], in [4], in experiment [5] and in [6] was over 62.5 µM each time. Also, the TGI in experiment [7], in [8], in experiment [9], in [10], in experiment [11] and in experiment [12] was over 62.5 µM each time. In addition, the TGI in experiment [13], in experiment [14], in experiment [15], in experiment [16], in experiment [17] and in experiment [18] was over 62.5 µM each time.
With `Cc1cc(=O)[nH]c(Sc2ccc([N+](=O)[O-])cc2[N+](=O)[O-])n1`, the TGI was 29.6 µM in [1]; over 66.3 µM in [2]; 32.3 µM in experiment [3]; 26.8 µM in experiment [4]; 28.3 µM in experiment [5]; 49.7 µM in experiment [6]. Besides, the TGI was over 100 µM in experiment [7]; over 100 µM in [8]; over 34.6 µM in experiment [9]; 43.5 µM in [10]; 35.2 µM in experiment [11]; 40.8 µM in experiment [12]. The TGI was over 100 µM in experiment [13]; over 76.4 µM in experiment [14]; 8.67 µM in experiment [15]; over 63.4 µM in experiment [16]; 28.4 µM in experiment [17]; 30 µM in [18].
As to `COc1cc(/C=C/C(=O)N[C@@H]2C(=O)N3[C@@H]2SC(C)(C)[C@@H]3C(=O)O)ccc1O`, the concentration for total growth inhibition (TGI) in experiment [1], in [2], in experiment [3], in experiment [4], in experiment [5] and in experiment [6] was over 100 µM each time. Also, the TGI in [7], in experiment [8], in experiment [9], in experiment [10], in experiment [11] and in [12] was over 100 µM each time. The concentration for total growth inhibition (TGI) in [13], in [14], in experiment [15], in [16], in [17] and in [18] was over 100 µM each time.
For `CCCCCCCCCCCCCCCCCCOC(COP(=O)(O)OCC1OC(n2cc(F)c(=O)[nH]c2=O)CC1O)COP(=O)(O)OCC1OC(n2ccc(N)nc2=O)C(O)C1O` (stereo not given), the total growth inhibition concentration (TGI) was over 100 µM in experiment [1]; over 100 µM in [2]; 62.5 µM in [3]; over 93.2 µM in experiment [4]; over 100 µM in experiment [5]; 78.8 µM in [6]. Moreover, the TGI in experiment [7] is over 79.8 µM; in [8] it was over 100 µM; in experiment [9], over 100 µM; in experiment [10], over 100 µM; in experiment [11], over 100 µM; in experiment [12], over 100 µM. Also, the concentration for total growth inhibition (TGI) in experiment [13], in experiment [14], in experiment [15], in experiment [16], in experiment [17] and in experiment [18] was over 100 µM each time.
On to `C[C@]12O[C@@]3(C)O[C@@]3(C)[C@]3(C)O[C@]3(C)[C@@]1(C)O2`, for which the TGI in experiment [1], in [2], in [3], in experiment [4], in [5] and in experiment [6] was over 100 µM throughout. Also, the TGI in [7], in [8], in [9], in experiment [10], in experiment [11] and in experiment [12] was over 100 µM throughout. Further, the total growth inhibition concentration (TGI) in experiment [13], in experiment [14], in [15], in [16], in experiment [17] and in experiment [18] was over 100 µM in each case.
For the molecule `CCOC(=O)/C=C(/C(=O)OCC)n1cc(C)c(=O)[nH]c1=O`, the total growth inhibition concentration (TGI) is 5.48 µM in experiment [1]; 33.7 µM in [2]; 3.91 µM in [3]; 22.8 µM in experiment [4]; 12.3 µM in experiment [5]; 20.6 µM in experiment [6]. Moreover, the concentration for total growth inhibition (TGI) in [7] is 6.51 µM; in experiment [8] it was 5.24 µM; in experiment [9], 5.74 µM; in experiment [10] it was 29.7 µM; in experiment [11], 13.3 µM; in experiment [12], 17.7 µM. Besides, the TGI in experiment [13] was determined as 32.4 µM; in experiment [14] it was 31.6 µM; in [15], 5.94 µM; in experiment [16] it was 46.9 µM; in experiment [17] it was 4.92 µM; in experiment [18] it was 9.81 µM.
Regarding `CC(O)/C=C/C1OC(=O)CC1Nc1ccc(C=O)cc1` (stereo not given), the TGI in experiment [1] was over 100 µM; in [2], over 100 µM; in [3] it was 41.9 µM; in experiment [4], over 100 µM; in experiment [5], over 100 µM; in experiment [6], over 100 µM. Besides, the TGI was 77.5 µM in [7]; 73.8 µM in experiment [8]; over 100 µM in [9]; over 100 µM in experiment [10]; over 100 µM in [11]; over 100 µM in [12]. Besides, the concentration for total growth inhibition (TGI) in [13], in experiment [14], in [15], in [16], in [17] and in experiment [18] was over 100 µM each time.
Consider `CS(=O)(=O)Nc1ccc(NCc2cnc3ccc4[nH]cccc4c23)cc1`, for which the TGI was 94.8 µM in [1]; over 100 µM in [2]; 46.4 µM in experiment [3]; 73.2 µM in experiment [4]; 88.8 µM in experiment [5]; 48.1 µM in [6]. Moreover, the TGI is 33.6 µM in experiment [7]; 47.7 µM in experiment [8]; 51.8 µM in experiment [9]; 71.3 µM in experiment [10]; over 100 µM in experiment [11]; 37.5 µM in experiment [12]. The TGI in [13] is over 100 µM; in [14] it was over 100 µM; in experiment [15], over 100 µM; in [16], 57 µM; in experiment [17], over 100 µM; in experiment [18], over 100 µM.
On to `O=C(/C=C/c1ccc(O)c(O)c1)O[C@H]1CCCC[C@@H]1OC(=O)/C=C/c1ccc(O)c(O)c1`, for which the TGI in experiment [1] was 57.7 µM; in [2], 91.2 µM; in [3] it was 77.9 µM; in experiment [4] it was 63.6 µM; in experiment [5] it was 50.1 µM; in experiment [6] it was over 100 µM. Besides, the total growth inhibition concentration (TGI) is over 100 µM in experiment [7]; over 100 µM in [8]; 19 µM in experiment [9]; 41.8 µM in [10]; 33.9 µM in [11]; 26.5 µM in [12]. Moreover, the TGI in experiment [13] is 41.3 µM; in experiment [14], 33.3 µM; in [15], 17 µM; in experiment [16], over 100 µM; in experiment [17], 35.7 µM; in experiment [18] it was 57.1 µM.
Regarding `CC(=O)OC1OC(C2c3cccc(O)c3C(=O)c3c(O)cc(CO)cc32)C(O)C(O)C1O` (stereo not given), the TGI in experiment [1] is 19.4 µM and 22.4 µM; in experiment [2], 44.7 µM and 28.1 µM; in [3], 24.4 µM and 24.8 µM; in experiment [4], 22.6 µM and 47.1 µM; in experiment [5] it was 24.3 µM and 17.9 µM; in experiment [6], 10.5 µM and 12.4 µM. Moreover, the TGI in [7] is 52.2 µM and 66.5 µM; in [8] it was > 100 µM and 33.1 µM; in experiment [9] it was 11.2 µM and 10.8 µM; in experiment [10], > 100 µM and 84.1 µM; in experiment [11], 11.7 µM and 18.1 µM; in experiment [12] it was 13.5 µM and 8.28 µM. The concentration for total growth inhibition (TGI) in experiment [13] was 18.3 µM and 90.8 µM; in experiment [14] it was 10.5 µM and 22 µM; in experiment [15], 9.75 µM and 9.49 µM; in experiment [16], 7.38 µM and 7.12 µM; in [17], 9.33 µM and 11.2 µM; in experiment [18], 69.3 µM and > 100 µM.
Take `COc1ccc(N2C(=O)C3c4[nH]c5ccc(OC)cc5c4C4CCC(c5ccccc5)CC4C3C2=O)cc1` (stereo not given): the TGI in experiment [1] was over 57.7 µM; in experiment [2] it was 33.2 µM; in experiment [3], over 56.8 µM; in experiment [4], 58.7 µM; in experiment [5], 27.9 µM; in experiment [6], over 75.7 µM. Besides, the TGI in [7] is 16.9 µM; in experiment [8], 2.45 µM; in experiment [9], 22.7 µM; in experiment [10] it was over 100 µM; in experiment [11], over 64.5 µM; in experiment [12], over 66.7 µM. The TGI is 26.1 µM in experiment [13]; 24.2 µM in [14]; 56.3 µM in [15]; 12.7 µM in experiment [16]; over 100 µM in experiment [17]; over 49.2 µM in [18].
For the molecule `Oc1c(O)c(Cc2ccccc2)c(Cc2ccccc2)c(Cc2ccccc2)c1Cc1ccccc1`, the total growth inhibition concentration (TGI) in [1], in experiment [2], in [3], in [4], in [5] and in experiment [6] was over 10 µM each time. The TGI in experiment [7], in experiment [8], in experiment [9], in [10], in experiment [11] and in [12] was over 10 µM in each case. Further, the TGI in experiment [13], in experiment [14], in [15], in [16], in experiment [17] and in [18] was over 10 µM in each case.
